Assay results published in ChEMBL document CHEMBL4418495, “Entpd5 inhibitors” (2012).
Active and inactive are the calls of the source. No rule for the calls is given here.

Biological target: T1, Nucleoside diphosphate phosphatase ENTPD5 (Homo sapiens) (UniProt O75356)
T1 sequence (whole entry): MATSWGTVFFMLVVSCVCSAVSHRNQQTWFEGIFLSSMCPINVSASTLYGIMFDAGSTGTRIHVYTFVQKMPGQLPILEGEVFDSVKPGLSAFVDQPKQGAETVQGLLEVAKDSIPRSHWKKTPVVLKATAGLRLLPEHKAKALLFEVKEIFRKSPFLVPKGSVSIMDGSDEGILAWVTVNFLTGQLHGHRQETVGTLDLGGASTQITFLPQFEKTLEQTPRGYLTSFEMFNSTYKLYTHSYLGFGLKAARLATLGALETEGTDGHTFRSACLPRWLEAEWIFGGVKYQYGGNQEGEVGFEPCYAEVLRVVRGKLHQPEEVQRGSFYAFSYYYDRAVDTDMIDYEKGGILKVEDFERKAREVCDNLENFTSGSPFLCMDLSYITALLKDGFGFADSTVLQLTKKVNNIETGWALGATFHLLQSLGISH
Assay: Inhibition of human recombinant ENTPD5 expressed in insect cells assessed as reduction in UDP hydrolysis at 1 uM incubated for 1 hr in presence of UMP, GTP and ATP by Escherichia coli UMP kinase pyrH catalyzed UMP phosphorylation coupled luciferase assay

Structure (SMILES)	inhibition
O=C(Cn1cc(/C=C2\C(=O)NC(=O)N(Cc3ccccc3)C2=O)c2ccccc21)NCc1ccccc1	Active
O=C1NC(=O)N(Cc2ccco2)C(=O)/C1=C\c1ccc(-c2ccc(Cl)c([N+](=O)[O-])c2)o1	Active
CC(C)(C)c1cc(CN(CCO)CCO)cc(C(C)(C)C)c1O	Active
O=C1/C(=C/c2ccc(O)c(O)c2)SC(=S)N1c1ccc([N+](=O)[O-])cc1	Active
O=C(c1ccc(C(F)(F)F)cc1)N(CCc1csc2nc(-c3ccc4ccccc4c3)cn12)Cc1ccco1	Active
COc1cccc(C(c2cc(C(C)(C)C)c(O)c(C(C)(C)C)c2)N2CCOCC2)c1OC (stereo unspecified)	Active
COC(=O)c1cccc2c1NC(c1ccc([N+](=O)[O-])cc1)C1CC=CC21 (stereo unspecified)	Active
Cn1cc(C(c2ccc(O)c(O)c2O)c2cn(C)c3ccccc23)c2ccccc21	Active
CCc1ccc(NC2=NC(=O)/C(=C/c3cc(Cl)c(OCC(=O)O)c(Cl)c3)S2)cc1	Active
COc1cccc(NC(=S)Nc2ccc3nc(-c4ccco4)c(-c4ccco4)nc3c2)c1	Active
CCCCCCCCCCCCCCCC[N+](C)(C)CCN(Cc1ccc(OC)cc1)c1ncccn1	Active
O=C1/C(=C/c2ccc(-c3ccc(Br)cc3)o2)SC(=S)N1Cc1ccco1	Active
O=C1C=CC(=O)c2c1ccc1c2ccc2ccccc21	Active
O=C(NC12CC3CC(CC(C3)C1)C2)N1CCN(C(=O)c2ccco2)CC1	Active
O=S(=O)(c1cccc2cccnc12)N(CCc1csc2nc(-c3ccc4ccccc4c3)cn12)Cc1ccco1	Active
N#CC1=C(N)C(C#N)(C#N)C(c2ccc(OCc3ccc(Cl)cc3)c([N+](=O)[O-])c2)C2CCCC=C12 (stereo unspecified)	Active
O=C1NC(=S)N(c2ccc(Cl)cc2)C(=O)/C1=C/c1ccc(I)o1	Active
O=C1NC(=S)NC(=O)C1=Cc1cn(-c2ccccc2)nc1-c1ccccc1	Active
Cc1ccnc(NC(c2ccc3cccnc3c2O)c2sccc2C)c1 (stereo unspecified)	Active

Biological target: T1, Nucleoside diphosphate phosphatase ENTPD5 (Homo sapiens)
Assay: Inhibition of human recombinant ENTPD5 expressed in insect cells assessed as reduction in UDP hydrolysis up to 10 uM incubated for 1 hr in presence of UMP, GTP and ATP by Escherichia coli UMP kinase pyrH catalyzed UMP phosphorylation coupled luciferase assay

Structure (SMILES)	inhibition
O=C(Cn1cc(/C=C2\C(=O)NC(=O)N(Cc3ccccc3)C2=O)c2ccccc21)NCc1ccccc1	Dose-dependent effect
O=C1NC(=O)N(Cc2ccco2)C(=O)/C1=C\c1ccc(-c2ccc(Cl)c([N+](=O)[O-])c2)o1	Dose-dependent effect
CC(C)(C)c1cc(CN(CCO)CCO)cc(C(C)(C)C)c1O	Dose-dependent effect
O=C1/C(=C/c2ccc(O)c(O)c2)SC(=S)N1c1ccc([N+](=O)[O-])cc1	Dose-dependent effect
O=C(c1ccc(C(F)(F)F)cc1)N(CCc1csc2nc(-c3ccc4ccccc4c3)cn12)Cc1ccco1	Dose-dependent effect
COc1cccc(C(c2cc(C(C)(C)C)c(O)c(C(C)(C)C)c2)N2CCOCC2)c1OC (stereo unspecified)	Dose-dependent effect
COC(=O)c1cccc2c1NC(c1ccc([N+](=O)[O-])cc1)C1CC=CC21 (stereo unspecified)	Dose-dependent effect
Cn1cc(C(c2ccc(O)c(O)c2O)c2cn(C)c3ccccc23)c2ccccc21	Dose-dependent effect
CCc1ccc(NC2=NC(=O)/C(=C/c3cc(Cl)c(OCC(=O)O)c(Cl)c3)S2)cc1	Dose-dependent effect
COc1cccc(NC(=S)Nc2ccc3nc(-c4ccco4)c(-c4ccco4)nc3c2)c1	Dose-dependent effect
CCCCCCCCCCCCCCCC[N+](C)(C)CCN(Cc1ccc(OC)cc1)c1ncccn1	Dose-dependent effect
O=C1/C(=C/c2ccc(-c3ccc(Br)cc3)o2)SC(=S)N1Cc1ccco1	Dose-dependent effect
O=C1C=CC(=O)c2c1ccc1c2ccc2ccccc21	Dose-dependent effect
O=C(NC12CC3CC(CC(C3)C1)C2)N1CCN(C(=O)c2ccco2)CC1	Dose-dependent effect
O=S(=O)(c1cccc2cccnc12)N(CCc1csc2nc(-c3ccc4ccccc4c3)cn12)Cc1ccco1	Dose-dependent effect
N#CC1=C(N)C(C#N)(C#N)C(c2ccc(OCc3ccc(Cl)cc3)c([N+](=O)[O-])c2)C2CCCC=C12 (stereo unspecified)	Dose-dependent effect
O=C1NC(=S)N(c2ccc(Cl)cc2)C(=O)/C1=C/c1ccc(I)o1	Dose-dependent effect
O=C1NC(=S)NC(=O)C1=Cc1cn(-c2ccccc2)nc1-c1ccccc1	Dose-dependent effect
Cc1ccnc(NC(c2ccc3cccnc3c2O)c2sccc2C)c1 (stereo unspecified)	Dose-dependent effect

Biological target: T2, Uridylate kinase (Escherichia coli (strain K12)) (UniProt P0A7E9)
T2 sequence (whole entry): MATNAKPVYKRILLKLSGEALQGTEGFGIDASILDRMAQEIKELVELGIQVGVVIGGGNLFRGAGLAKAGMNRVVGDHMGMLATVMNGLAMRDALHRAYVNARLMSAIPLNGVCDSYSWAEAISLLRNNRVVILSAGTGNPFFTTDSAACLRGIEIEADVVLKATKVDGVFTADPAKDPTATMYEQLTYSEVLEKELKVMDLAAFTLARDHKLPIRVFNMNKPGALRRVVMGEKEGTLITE
Assay: Inhibition of recombinant Escherichia coli UMP kinase pyrH catalyzed UMP phosphorylation in presence of GTP and ATP incubated for 1 hr by luminescence based assay

Structure (SMILES)	inhibition
O=C(Cn1cc(/C=C2\C(=O)NC(=O)N(Cc3ccccc3)C2=O)c2ccccc21)NCc1ccccc1	inactive
O=C1NC(=O)N(Cc2ccco2)C(=O)/C1=C\c1ccc(-c2ccc(Cl)c([N+](=O)[O-])c2)o1	inactive
CC(C)(C)c1cc(CN(CCO)CCO)cc(C(C)(C)C)c1O	inactive
O=C1/C(=C/c2ccc(O)c(O)c2)SC(=S)N1c1ccc([N+](=O)[O-])cc1	inactive
O=C(c1ccc(C(F)(F)F)cc1)N(CCc1csc2nc(-c3ccc4ccccc4c3)cn12)Cc1ccco1	inactive
COc1cccc(C(c2cc(C(C)(C)C)c(O)c(C(C)(C)C)c2)N2CCOCC2)c1OC (stereo unspecified)	inactive
COC(=O)c1cccc2c1NC(c1ccc([N+](=O)[O-])cc1)C1CC=CC21 (stereo unspecified)	inactive
Cn1cc(C(c2ccc(O)c(O)c2O)c2cn(C)c3ccccc23)c2ccccc21	inactive
CCc1ccc(NC2=NC(=O)/C(=C/c3cc(Cl)c(OCC(=O)O)c(Cl)c3)S2)cc1	inactive
COc1cccc(NC(=S)Nc2ccc3nc(-c4ccco4)c(-c4ccco4)nc3c2)c1	inactive
CCCCCCCCCCCCCCCC[N+](C)(C)CCN(Cc1ccc(OC)cc1)c1ncccn1	inactive
O=C1/C(=C/c2ccc(-c3ccc(Br)cc3)o2)SC(=S)N1Cc1ccco1	inactive
O=C1C=CC(=O)c2c1ccc1c2ccc2ccccc21	inactive
O=C(NC12CC3CC(CC(C3)C1)C2)N1CCN(C(=O)c2ccco2)CC1	inactive
O=S(=O)(c1cccc2cccnc12)N(CCc1csc2nc(-c3ccc4ccccc4c3)cn12)Cc1ccco1	inactive
N#CC1=C(N)C(C#N)(C#N)C(c2ccc(OCc3ccc(Cl)cc3)c([N+](=O)[O-])c2)C2CCCC=C12 (stereo unspecified)	inactive
O=C1NC(=S)N(c2ccc(Cl)cc2)C(=O)/C1=C/c1ccc(I)o1	inactive
O=C1NC(=S)NC(=O)C1=Cc1cn(-c2ccccc2)nc1-c1ccccc1	inactive
Cc1ccnc(NC(c2ccc3cccnc3c2O)c2sccc2C)c1 (stereo unspecified)	inactive

Biological target: T1, Nucleoside diphosphate phosphatase ENTPD5 (Homo sapiens)
Assay: Inhibition of human recombinant ENTPD5 expressed in insect cells assessed as reduction in reduction in UDP hydrolysis by measuring inorganic phosphate release incubated for 1 hr by malachite green based assay

Structure (SMILES)	inhibition
O=C(Cn1cc(/C=C2\C(=O)NC(=O)N(Cc3ccccc3)C2=O)c2ccccc21)NCc1ccccc1	Active
O=C1NC(=O)N(Cc2ccco2)C(=O)/C1=C\c1ccc(-c2ccc(Cl)c([N+](=O)[O-])c2)o1	Active
CC(C)(C)c1cc(CN(CCO)CCO)cc(C(C)(C)C)c1O	Active
O=C1/C(=C/c2ccc(O)c(O)c2)SC(=S)N1c1ccc([N+](=O)[O-])cc1	Active
O=C(c1ccc(C(F)(F)F)cc1)N(CCc1csc2nc(-c3ccc4ccccc4c3)cn12)Cc1ccco1	Active
COc1cccc(C(c2cc(C(C)(C)C)c(O)c(C(C)(C)C)c2)N2CCOCC2)c1OC (stereo unspecified)	Active
COC(=O)c1cccc2c1NC(c1ccc([N+](=O)[O-])cc1)C1CC=CC21 (stereo unspecified)	Active
Cn1cc(C(c2ccc(O)c(O)c2O)c2cn(C)c3ccccc23)c2ccccc21	Active
CCc1ccc(NC2=NC(=O)/C(=C/c3cc(Cl)c(OCC(=O)O)c(Cl)c3)S2)cc1	Active
COc1cccc(NC(=S)Nc2ccc3nc(-c4ccco4)c(-c4ccco4)nc3c2)c1	Active
CCCCCCCCCCCCCCCC[N+](C)(C)CCN(Cc1ccc(OC)cc1)c1ncccn1	Active
O=C1/C(=C/c2ccc(-c3ccc(Br)cc3)o2)SC(=S)N1Cc1ccco1	Active
O=C1C=CC(=O)c2c1ccc1c2ccc2ccccc21	Active
O=C(NC12CC3CC(CC(C3)C1)C2)N1CCN(C(=O)c2ccco2)CC1	Active
O=S(=O)(c1cccc2cccnc12)N(CCc1csc2nc(-c3ccc4ccccc4c3)cn12)Cc1ccco1	Active
N#CC1=C(N)C(C#N)(C#N)C(c2ccc(OCc3ccc(Cl)cc3)c([N+](=O)[O-])c2)C2CCCC=C12 (stereo unspecified)	Active
O=C1NC(=S)N(c2ccc(Cl)cc2)C(=O)/C1=C/c1ccc(I)o1	Active
O=C1NC(=S)NC(=O)C1=Cc1cn(-c2ccccc2)nc1-c1ccccc1	Active
Cc1ccnc(NC(c2ccc3cccnc3c2O)c2sccc2C)c1 (stereo unspecified)	Active
